For two compounds, Intrinsic clearance and duration of action results are on record in patent publication US12076311B2, “Therapeutic compositions comprising deuterated or partially deuterated N,N-dimethyltryptamine compounds” (CYBIN UK LTD, priority 2019, dated 2024).

SMILES strings stand for the structures.

The test system of data set [1] is Human (mixed gender) hepatocytes pooled from 10 donors. Description: In vitro intrinsic clearance in human hepatocytes. The format is in vitro ADME. The settings on record: human hepatocytes 0.545 million cells/mL, 5 μM, up to 60 minutes at 37° C.; weighted by ratio of D0, D1 and D2. The protocol: To use human hepatocytes to assess the in vitro intrinsic clearance of deuterated DMT analogue blends relative to DMT.
Human (mixed gender) hepatocytes pooled from 10 donors (0.545 million cells/mL) were used to investigate the in vitro intrinsic clearance of DMT and 6 deuterated analogues.
A concentration of 5 μM was used for all test compounds, as well as sumatriptan, serotonin, benzylamine controls. This concentration was chosen in order to maximise the signal-to-noise ratio, while remaining under the Michaelis constant (Km) for the monoamine oxidase enzyme (MAO). Diltiazem and diclofenac controls were used at a laboratory-validated concentration of 1 μM.
Test compounds were mixed with the hepatocyte suspension within a 96-well plate and incubated for up to 60 minutes at 37° C. […] At 7 time points, small aliquots were withdrawn, and the test compound/blend concentration therein was measured by LC-MS/MS. The time points measured were 2, 4, 8, 15, 30, 45 and 60 minutes. […]
The resulting concentration-time profile was then used to calculate intrinsic clearance (CLint) and half-life (t½). […] Intrinsic clearance is calculated from the slope/elimination rate constant and the formula is CLint=(−1000*slope)/cell denisty in 1E6 cells/ml, to give units of microlitre/min/million cells.
Intrinsic clearance and half-life values were calculated for DMT and the 6 deuterated mixtures described above.

The conditions of data set [2]: short-acting psychedelic; cited from earlier work.

As to `CN(C)CCc1c[nH]c2ccccc12` [DMT, N,N-dimethyltryptamine], the Intrinsic clearance in data set [1] worked out at 13.77 μL/min/million cells.
As for `CN(C)CCc1c[nH]c2ccccc12` [N,N-dimethyltryptamine (DMT)], the duration of action result in data set [2] is listed as “under 20 minutes”.
